Earlier results in patent US20020192293A1, “Method for manufacture of extended release dosage form” (priority 2001, published 2002).
Where two headings read alike, the source gives them in different places.

Settings: in words

SMILES | solubility in water | solubility in water (listed as free-phenytoin)
O=C1NC(=O)C(c2ccccc2)(c2ccccc2)N1 [phenytoin, 5,5-diphenyl-2,4-imidazolidinedione] | poor solubility in water | practically insoluble in water
O=C1N=C([O-])NC1(c1ccccc1)c1ccccc1.[Na+] [sodium phenytoin, Sodium phenytoin] | much more soluble | 
